# From patent publication US8927599B2, “Use of statins as anticonvulsants, antiepileptics and neuroprotectors” (Neuron Biopharma, S.A., priority 2008, dated 2015)
# Read-outs that look alike come from different tables or passages of the source.
# Key:
# [1] = test system: male mice of the FVB/N strain inoculated with kainate (KA); experiment: Kainate-induced convulsions, epilepsy level on the Racine scale and latency (Example 1); assay type: in vivo; conditions: for time of the onset of the first convulsion (latency): KA 30 mg/kg i.p., FIG. 1
# Procedure: All the animals included during the experimental process were 16 week old male mice of the FVB/N strain [Taconic Farms, Inc. (www.taconic.com)]. The experiments were carried out strictly following the Guidance on the Operation of Animals (Scientific Procedures, Act. 1986). The animals had their respective quarantine period and were treated with maximum precaution to minimize possible contaminations during inoculations and handling.
# The animals, distributed into different groups, were intraperitoneally inoculated with 30 mg/kg of kainate (KA) dissolved in phosphate buffer saline (PBS), according to the following protocol: • seven animals were pretreated, at 24 and 0.5 hours before the inoculation with KA, with PBS by means of intraperitoneal (i.p.) injection; • six animals were pretreated, at 24 and 0.5 hours before the inoculation with KA, with simvastatin at a dose of 50 mg/kg by means of i.p. injection; and • four animals were pretreated, at 24 and 0.5 hours before the inoculation with KA, with DNQX (a specific inhibitor of KA receptors) at a dose of 30 mg/kg, by means of i.p. injection.
# (§1) After the inoculation with KA, the animals were individually housed in cages to monitor them. The maximum epilepsy level of the animals was recorded every 10 minutes during the observation according to the Racine scale and for at least 120 minutes post-inoculation (m.p.i.).
# [2] = test system: male mice of the FVB/N strain inoculated with kainate (KA); experiment: Effect of the route of administration, kainate model (Example 3); assay type: in vivo; conditions: FIG. 5
# Procedure: As shown in Examples 1 and 2, simvastatin has antiepileptic properties and such properties depend on the dose at which said compound is administered. Due to these observations, the inventors decided to investigate if the antiepileptic effect of simvastatin would also be modulated by the route of administration. All the animals included during the experimental process were 16 week old male mice of the FVB/N strain. The experiments were carried out strictly following the Guidance on the Operation of Animals (Scientific Procedures, Act. 1986). The animals had their respective quarantine period and were treated with maximum precaution to minimize possible contaminations during inoculations and handling.
# The animals, distributed into different groups, were intraperitoneally inoculated with 25 mg/kg of KA dissolved in PBS, according to the following protocol: • three animals were pretreated, at 24 and 0.5 hours before the inoculation with KA, with simvastatin at a dose of 50 mg/kg by means of direct oral administration; and • two animals were pretreated, at 24 and 0.5 hours before the inoculation with KA, with simvastatin at a dose of 50 mg/kg by means of i.p. injection
# as §1
# [3] = test system: male mice of the FVB/N strain inoculated with kainate (KA); experiment: Kainate-induced convulsions and status epilepticus, lovastatin (Example 10); assay type: in vivo; conditions: KA 25 mg/kg i.p., 50 mg/kg i.p. at 24 and 0.5 h before KA
# Procedure: All the animals included during the experimental process were 12 week old male mice of the FVB/N strain [Taconic Farms, Inc. (www.taconic.com)]. The experiments were carried out strictly following the Guidance on the Operation of Animals (Scientific Procedures, Act. 1986). The animals had their respective quarantine period and were treated with maximum precaution to minimize possible contaminations during inoculations and handling.
# The mice, distributed into different groups, were intraperitoneally inoculated with 25 mg/kg of KA dissolved in PBS, according to the following protocol: • five mice were pretreated, at 24 and 0.5 hours before the inoculation with KA, with PBS by means of intraperitoneal (i.p.) injection; and • five animals were pretreated, at 24 and 0.5 hours before the inoculation with KA, with lovastatin at a dose of 50 mg/kg by means of i.p. injection
# After the inoculation with KA, the animals were individually housed in cages to monitor them. The maximum epilepsy level of the animals was recorded every 10 minutes during the observation according to the Racine scale and for at least 120 minutes post-inoculation (m.p.i.). Comparative studies of the epilepsy levels between the treatment with PBS and with lovastatin (FIG. 12) were subsequently conducted. […]
# patient = conditions: cited from earlier work
smiles,measurement,setting,value
O=[N+]([O-])c1cc2nc(O)c(O)nc2cc1[N+](=O)[O-] [DNQX],time of the onset of the first convulsion (latency),[1]; pretreated 30 mg/kg i.p. at 24 and 0.5 h before KA,23.3 ± 7.6 min
same,epilepsy level (Racine scale) versus PBS,"[1]; after 30 m.p.i. of KA 30 mg/kg, 30 mg/kg i.p. pretreatment, FIG. 3",prevents the increase of the epileptic levels
CCC(C)(C)C(=O)O[C@H]1C[C@@H](C)C=C2C=C[C@H](C)[C@H](CC[C@@H]3C[C@@H](O)CC(=O)O3)[C@H]21 [simvastatin],time of the onset of the first convulsion (latency),[1]; pretreated 50 mg/kg i.p. at 24 and 0.5 h before KA,50.0 ± 11.8 min
same,mean epilepsy level (Racine scale),"[1]; after 30 m.p.i. of KA 30 mg/kg, 50 mg/kg i.p. pretreatment, FIG. 2",≤ 4
same,epileptic level (Racine scale),"[2]; 50 mg/kg direct oral administration, reached at 100 m.p.i. and maintained until 120 m.p.i., KA 25 mg/kg",2
same,epileptic level (Racine scale),"[2]; 50 mg/kg i.p., 70 m.p.i. of KA 25 mg/kg",2
same,epileptic level (Racine scale),"[2]; 50 mg/kg i.p., 120 m.p.i. of KA 25 mg/kg",1
CC[C@H](C)C(=O)O[C@H]1C[C@@H](C)C=C2C=C[C@H](C)[C@H](CC[C@@H]3C[C@@H](O)CC(=O)O3)[C@H]21 [lovastatin],entrance into status epilepticus,[3]; PBS 3 of 5,0 of 5
same,epilepsy symptoms (Racine scale) at the end of the observation time,"[3]; PBS+KA about 3, p-value=0.00059, FIG. 12",completely reduced the epilepsy symptoms
CC(C)c1nc(N(C)S(C)(=O)=O)nc(-c2ccc(F)cc2)c1/C=C/[C@@H](O)C[C@@H](O)CC(=O)O [rosuvastatin],adverse event after administration to a patient,"patient; Lorenzoni et al., Arq Neuropsiquiatr. 2007",severe rhabdomyolysis with convulsions and coma
CC(C)n1c(/C=C/C(O)CC(O)CC(=O)O)c(-c2ccc(F)cc2)c2ccccc21 (centres unmarked) [fluvastatin],adverse event after administration to a patient,"patient; patient with catastrophic antiphospholipid syndrome, Miesbach et al., J Neurol Sci. 2005",focal convulsions
